The values that follow come from patent US11666533B2, “Emulsion formulations of multikinase inhibitors” (Cloudbreak Therapeutics, LLC, priority 2018, dated 2023).

Data set [1] in a line: Solubilizer screen for nintedanib (Example 3). It is filed as physicochemical. Conditions: for pH: pH of filtrate. As to the method: Tare 1.5 mL Eppendorf tube 2. […] Add solubilizer and record weight 4. Add water pH 5 (except F3 & F4) and record weight 5. Beadbeater mix for 120 seconds […] Place on rotating mixer for overnight at ambient temperature 7. Filter through 0.2 μm SPIN-X centrifuge filter 8. Measure pH of filtrate 9. Assay filtrate using CBT-001 standard solution

The nature of data set [2]: Solubility of nintedanib in a representative emulsion system (F70). The note with it: aqueous with cosolvent or surfactant or cyclodextrin; emulsion system: castor oil 1, polysorbate 80 1, polyoxyl-35 castor oil 2, water 95, none in Table 6. Type of data set: physicochemical. The source says: Various emulsion systems were identified for investigation based on the solubilizer results.

Values after ≈ are worked out from the molar mass of the structure shown.

For the compound `COC(=O)c1ccc2c(c1)NC(=O)/C2=C(\Nc1ccc(N(C)C(=O)CN2CCN(C)CC2)cc1)c1ccccc1` [nintedanib], the pH is given as 5.6 in data set [1] (solubilizer BZA); 5.6 in data set [1] (solubilizer BZK); 6.1 in data set [1] (solubilizer EtOH); 5.6 in data set [1] (solubilizer PEG 400); 6.0 in data set [1] (solubilizer PEG 8000); 6.0 in data set [1] (solubilizer PG). Besides, the pH in data set [1] (solubilizer PLXMR 188) was determined as 6.5; in data set [1] (solubilizer PLXMR 407), 6.3; in data set [1] (solubilizer polysorbate 20), 6.6; in data set [1] (solubilizer polysorbate 80) it was 6.7. Besides, the Nintedanib solubility was found to be 0.01 mg/g in data set [1] (solubilizer BZA (1% benzyl alcohol in water, F-1)); 0.20 mg/g in data set [1] (solubilizer BZK (1% in water, F-5)); 0.37 mg/g in data set [1] (solubilizer Castor oil (99.5%, F-3)); 0.01 mg/g in data set [1] (solubilizer EtOH (1% ethanol in water, F-2)); 0.00 mg/g in data set [1] (solubilizer Mineral oil (99.5%, F-4)); 0.17 mg/g in data set [1] (solubilizer PEG 400 (5% in water, F-10)). In addition, the Nintedanib solubility in data set [1] (solubilizer PEG 8000 (2% in water, F-11)) is listed as 0.01 mg/g; in data set [1] (solubilizer PG (1% propylene glycol in water, F-12)), 0.01 mg/g; in data set [1] (solubilizer PLXMR 188 (1% Poloxamer 188 in water, F-8)), 0.01 mg/g; in data set [1] (solubilizer PLXMR 407 (1% Poloxamer 407 in water, F-9)), 0.01 mg/g; in data set [1] (solubilizer polysorbate 20 (1% in water, F-6)), 0.06 mg/g; in data set [1] (solubilizer polysorbate 80 (1% in water, F-7)) it was 0.25 mg/g. Moreover, the solubility (usually how much of the substance goes into solution per volume) in data set [2] is 3000 to 5000 µg/mL (≈ 5.56 to 9.27 mM).
